Data set [1] can be described thus: Optical properties of Cy7MX in various solvents (Example 2). Type of data set: physicochemical. The text has this:
Fluorescence quantum yield measurements. Fluorescent quantum yields determined by a comparative method to an indocyanine green (ICG) standard (F=0.132 in EtOH) with refractive index correction according to the equation:
[formula] • where F is the quantum yield; m is the slope of the integrated fluorescence intensity as a function of absorbance maxima; n is the refractive index of the solvent (EtOH, 1.3611; MeCN, 1.3442; H2O, 1.333; and CHCl3, 1.4459); and R is the reference sample, ICG in EtOH. Data were collected in a quartz cuvette with a 1 cm path length. Absorbance maxima for each sample were kept at or below 0.2 absorbance units to avoid inner filter effects. Fluorophores were excited at 700 nm and emission spectra integrated from 705 to 1000 nm. Solvents used were spectroscopic grade ethanol and HPLC grade acetonitrile, HPLC grade chloroform, and HPLC grade water. For the water solution, Cy7MX was first dissolved in MeCN and diluted at least 200 fold. SSB Activity Assay General Procedures
The absorption and fluorescence properties of Cy7MX were then evaluated in relatively nonpolar (CHCl3), polar aprotic (MeCN), and polar protic (EtOH and H2O) solvents. […] Likewise, the quantum yields of Cy7MX in these solvents compare favorably with other cyanine dyes (Table 3).

The test system of data set [2] is AP sites in calf thymus DNA. In words: MX and Cy7MX genomic DNA blocking assay. The following applies: not blocked by MX. Format: binding. As to the method:
FIG. 10 illustrates fluorescence response and MX blocking of Cy7MX. Calf thymus DNA treated with heat and acid for increments of 15 min to give a linear relative number of AP sites. AP DNA was then pretreated with MX (50 mM, +MX) or NaCl (50 mM, −MX) followed by incubation with Cy7MX (0.05 mM). Fluorescence measures show a linear response to Cy7MX when not blocked by MX.
Calf thymus DNA was purchased from Sigma and was reconstituted overnight at 4° C. in either H2O or 500 mM MX (to eliminate basal AP sites) with gentle shaking (1.5 mL water or solution per 5 mg DNA). For samples reconstituted in MX solution, an ethanol precipitation was performed twice before heat and acid treatment (vide infra) then reconstituted in water. The DNA-water solution was aliquoted to 1.5 mL Eppendorf tubes (360 μL) and 10× Citrate buffer (1M NaCl, 100 μM monosodium phosphate, 100 μM monosodium citrate, pH 5.0) was added to a final concentration of 1×. For t=0 min samples, ice-cold 100% EtOH (1.0 mL) was added immediately and the Eppendorf tubes stored at −20° C. […]
To 80 μL aliquots of DNA was added either 10 μL of MX (500 mM, pH 7) or vehicle control (500 mM NaCl). […] Aliquots (125 μL) of the samples were added to a black, clear-bottom 96 well plate (Corning) and analyzed with 700 nm excitation and 790 nm emission. Fluorescence was adjusted to DNA concentration.

Each structure is given as a SMILES string.

Consider `CCCN1/C(=C/C=C2\CCCC(/C=C/C3=[N+](CCC)c4ccccc4C3(C)C)=C2Oc2ccc(CC(=O)NCCCON)cc2)C(C)(C)c2ccccc21` [Cy7MX, 2-((E)-2-((E)-2-(4-(2-((3-(aminooxy)propyl)amino)-2-oxoethyl)phenoxy)-3-((E)-2-(3,3-dimethyl-1-propylindolin-2-ylidene)ethylidene)cyclohex-1-en-1-yl)vinyl)-3,3-dimethyl-1-propyl-3H-indol-1-ium 2,2,2-trifluoroacetate], for which, in data set [1] (CHCl3), the Φ came out at 38.2%, the λabs was determined as 770 nm and the λem is recorded as 791 nm. For the same compound, in data set [1] (CHCl3, MeCN, EtOH and H2O), the absorption maximum is on record as about 770 nm, the emission maximum is about 790 nm and the solvatochromic shifts result is recorded as “No solvatochromic shifts were observed”. Further, in data set [1] (EtOH), the Φ worked out at 39.3%, the ε is 127,000 M−1cm−1, the λabs amounted to 770 nm and the λem is reported as 796 nm. In addition, in data set [1] (H2O), the Φ is 6.6%, the ε is given as 140,000 M−1cm−1, the λabs is on record as 767 nm and the λem is recorded as 790 nm. Moreover, in data set [1] (MeCN), the Φ was determined as 48.7%, the ε is 154,000 M−1cm−1, the λabs is listed as 767 nm and the λem came out at 789 nm. The “fluorescence intensity versus DNA heat/acid treatment time” value in data set [2] is “linear relationship”.

The record behind these values is US10718028B2, “Fluorescent probes for abasic site detection” (CASE WESTERN RESERVE UIVERSITY, priority 2015, dated 2020).
